In BindingDB's records for doi:10.1111/j.1747-0285.2008.00719.x (The Burnham Institute For Medical Research, 2008):
pKd: −log10 of the molar value.

Target: T1, Phosducin-like protein 3 (Homo sapiens, UniProt Q9H2J4)
T1 sequence (Q9H2J4 whole entry): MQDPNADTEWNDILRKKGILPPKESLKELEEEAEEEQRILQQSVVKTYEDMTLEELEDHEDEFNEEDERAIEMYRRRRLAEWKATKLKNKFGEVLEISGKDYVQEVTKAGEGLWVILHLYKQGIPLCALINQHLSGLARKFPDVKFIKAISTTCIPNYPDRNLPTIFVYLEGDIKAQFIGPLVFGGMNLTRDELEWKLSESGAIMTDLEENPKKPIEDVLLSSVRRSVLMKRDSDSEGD
Assay: NMR Screening Assay
Conditions: pH 7.5; 27 °C
Text: NMR-based screen of potential binders by using 1D Aliphatic 1H NMR experiment to investigate the potential role of the c-VIAF as a possible drug target viral infections validation and functional studies.

SMILES: CCOC(=O)Cn1cnc2sc3c(c2c1=O)CCC3 [2-(1-keto-7,8-dihydro-6H-cyclopenta[2,3]thieno[2,4-d]pyrimidin-2-yl)acetic acid ethyl ester]
- pKd: 3.64

SMILES: CCOC(=O)Cn1cnc2sc3c(c2c1=O)CCCC3 [BI-86-E6]
- pKd: 4.78

SMILES: CCOC(=O)C(CC)n1cnc2sc3c(c2c1=O)CCCC3 (configuration not stated) [BI-86-E8]
- pKd: < 3.00

SMILES: CC(C)COC(=O)Cn1cnc2sc3c(c2c1=O)CCCC3 [BI-86-E11]
- pKd: < 3.00

SMILES: CCOC(=O)C(C)n1cnc2sc3c(c2c1=O)CCCC3 (configuration not stated) [BI-86-E12]
- pKd: 4.12

SMILES: O=C(Cn1cnc2sc3c(c2c1=O)CCCC3)OCc1ccccc1 [BI-86-F2]
- pKd: < 3.00

SMILES: O=c1[nH]nnc2sc3c(c12)CCCC3 [BI-86-F3]
- pKd: < 3.00
